Measurements published in patent publication US8883827B2, “Azole derivatives as WTN pathway inhibitors” (Oslo University Hospital HF, priority 2009, dated 2014).
Several values for one entry are separate records, joined by “and”; a condition that tells them apart may be missing. Identical values can stand only once.

Key:
Apc^Min mice = test: Tumour growth in Apc^Min mice; assay type: in vivo
Procedure: Cages containing three C57BL/6 females were crossed with one C57BL/6J-Apc^Min male. The mice were fed with 2018SX Teklad Global 18% Protein Extruded Rodent Diet (Harlan™). 5-7 day old pups were randomized and divided into two treatment groups; the test group was treated with compound (1) and the control group treated with control vehicle (1% Tween®80—Sigma). Test solutions were administered daily by subcutaneous injection into the back of the neck (10 μl solution per gram of animal weight, solution 15 mg/ml compound). Two day injection intermissions followed after every fifth injection day. At the age of 21 days, mice were genotyped and Apc^Min animals were sorted into a males and females. At the same time, subcutaneous injection of the solutions was substituted by oral administration. For oral application, compound (1) was dissolved in DMSO to […]. DMSO alone was used as a vehicle control (5 μl solution per gram of animal weight, solution 30 mg/ml). Administration was terminated at the age of 9 weeks and animals euthanased. The small intestine and colon of each animal was dissected, fixed in 10% PFA and stained with 1% methylene blue. Intestines were divided into anonymous and coded samples before manual analysis by microscopy. The frequency, distribution and size of the tumors were quantified. The mice were weighted twice a week throughout the experiment. All animal experiments were approved by local ethics authorities at Forsøksdyrutvalget, Oslo, Norway, and were carried out following accepted ethical standards. […] For each statistical comparison, a Shapiro-Wilk normality test was performed along with a Students t-test if passed (P>0.05). When normality could not be achieved in the Shapiro-Wilk test, a Mann-Whitney rank sum test was used instead of Students t-test. The α-level was set to 0.05 and a difference with P<0.05 was considered to be statistically significant. Sample size (n), median, range, maximum, minimum, mean, standard deviation, standard error, and confidence intervals (C.I. of mean) are listed.

CaMKI(h) = biological target: T1, CaMKI(h) (Homo sapiens, UniProt Q14012); test: Kinase screen; assay type: biochemical; conditions: 0.1% DMSO control = 100%
T1 construct: purchased Millipore (KinaseProfiler service)

DRAK1(h) = biological target: T2, DRAK1(h) (Homo sapiens, UniProt Q9UEE5); test: Kinase screen; assay type: biochemical; conditions: 0.1% DMSO control = 100%
T2 construct: purchased Millipore (KinaseProfiler service)

PAK2(h) = biological target: T3, PAK2(h) (Homo sapiens, UniProt Q13177); test: Kinase screen; assay type: biochemical; conditions: 0.1% DMSO control = 100%
T3 construct: purchased Millipore (KinaseProfiler service)

TAK1(h) = biological target: T4, TAK1(h) (Homo sapiens, UniProt O43318); test: Kinase screen; assay type: biochemical; conditions: 0.1% DMSO control = 100%
T4 construct: purchased Millipore (KinaseProfiler Service)

YopH(y) = conditions: 10 μM
RPTPm(h) = biological target: T5, RPTPm(h) (Homo sapiens, UniProt P28827); test: Phosphatase screen; assay type: biochemical; conditions: 0.1% DMSO control = 100%
T5 construct: purchased Millipore (KinaseProfiler service)

[1] = Test female, s.c. then oral 150 mg/kg, to age 9 weeks
[2] = Test male, s.c. then oral 150 mg/kg, to age 9 weeks

T5 sequence (P28827 21-1452): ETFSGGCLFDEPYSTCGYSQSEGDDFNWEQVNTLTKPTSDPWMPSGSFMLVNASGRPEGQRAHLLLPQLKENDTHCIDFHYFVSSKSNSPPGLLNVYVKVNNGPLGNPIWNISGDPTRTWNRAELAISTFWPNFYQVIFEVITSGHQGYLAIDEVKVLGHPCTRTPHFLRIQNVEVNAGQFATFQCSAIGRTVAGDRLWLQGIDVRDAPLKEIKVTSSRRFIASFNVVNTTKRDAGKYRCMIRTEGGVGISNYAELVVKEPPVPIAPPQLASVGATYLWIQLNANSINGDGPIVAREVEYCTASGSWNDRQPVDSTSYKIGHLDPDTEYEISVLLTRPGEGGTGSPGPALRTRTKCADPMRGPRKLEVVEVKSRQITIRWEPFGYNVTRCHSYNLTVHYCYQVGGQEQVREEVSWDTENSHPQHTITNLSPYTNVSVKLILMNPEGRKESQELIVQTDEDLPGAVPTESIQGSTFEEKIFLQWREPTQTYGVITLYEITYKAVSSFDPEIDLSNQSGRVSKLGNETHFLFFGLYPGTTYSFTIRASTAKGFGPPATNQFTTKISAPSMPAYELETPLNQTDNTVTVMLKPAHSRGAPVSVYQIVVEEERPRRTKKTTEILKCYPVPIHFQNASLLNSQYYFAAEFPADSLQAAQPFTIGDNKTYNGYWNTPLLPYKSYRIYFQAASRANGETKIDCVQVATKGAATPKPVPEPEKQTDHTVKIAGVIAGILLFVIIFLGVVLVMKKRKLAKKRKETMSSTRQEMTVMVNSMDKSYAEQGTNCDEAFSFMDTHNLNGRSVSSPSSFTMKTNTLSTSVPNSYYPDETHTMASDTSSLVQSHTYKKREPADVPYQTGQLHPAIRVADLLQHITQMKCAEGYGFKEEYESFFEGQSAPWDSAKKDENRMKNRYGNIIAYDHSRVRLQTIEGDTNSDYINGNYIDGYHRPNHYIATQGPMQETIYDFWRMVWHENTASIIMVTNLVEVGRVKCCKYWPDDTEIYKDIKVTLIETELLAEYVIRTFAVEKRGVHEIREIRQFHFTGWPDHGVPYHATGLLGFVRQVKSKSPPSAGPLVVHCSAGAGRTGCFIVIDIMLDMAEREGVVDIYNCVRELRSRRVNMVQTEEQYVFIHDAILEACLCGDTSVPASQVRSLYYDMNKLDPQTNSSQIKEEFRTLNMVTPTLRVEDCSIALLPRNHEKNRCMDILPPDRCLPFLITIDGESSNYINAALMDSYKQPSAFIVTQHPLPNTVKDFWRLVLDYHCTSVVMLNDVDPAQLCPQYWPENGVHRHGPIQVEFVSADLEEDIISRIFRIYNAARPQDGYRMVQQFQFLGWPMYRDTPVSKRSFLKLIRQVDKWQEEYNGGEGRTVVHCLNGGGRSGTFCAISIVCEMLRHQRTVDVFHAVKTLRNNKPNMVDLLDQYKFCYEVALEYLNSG
T2 sequence (Q9UEE5 whole entry): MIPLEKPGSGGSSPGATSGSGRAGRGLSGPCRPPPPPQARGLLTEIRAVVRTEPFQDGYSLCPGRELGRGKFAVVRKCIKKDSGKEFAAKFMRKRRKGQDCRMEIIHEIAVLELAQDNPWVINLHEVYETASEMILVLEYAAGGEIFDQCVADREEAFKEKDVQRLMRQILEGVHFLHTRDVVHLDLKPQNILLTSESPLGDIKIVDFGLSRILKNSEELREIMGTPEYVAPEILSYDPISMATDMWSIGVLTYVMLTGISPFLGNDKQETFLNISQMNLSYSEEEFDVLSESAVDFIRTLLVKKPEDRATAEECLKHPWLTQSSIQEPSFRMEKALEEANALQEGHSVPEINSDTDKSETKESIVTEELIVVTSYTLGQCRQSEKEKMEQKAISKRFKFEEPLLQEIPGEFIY
T1 sequence (Q14012 whole entry): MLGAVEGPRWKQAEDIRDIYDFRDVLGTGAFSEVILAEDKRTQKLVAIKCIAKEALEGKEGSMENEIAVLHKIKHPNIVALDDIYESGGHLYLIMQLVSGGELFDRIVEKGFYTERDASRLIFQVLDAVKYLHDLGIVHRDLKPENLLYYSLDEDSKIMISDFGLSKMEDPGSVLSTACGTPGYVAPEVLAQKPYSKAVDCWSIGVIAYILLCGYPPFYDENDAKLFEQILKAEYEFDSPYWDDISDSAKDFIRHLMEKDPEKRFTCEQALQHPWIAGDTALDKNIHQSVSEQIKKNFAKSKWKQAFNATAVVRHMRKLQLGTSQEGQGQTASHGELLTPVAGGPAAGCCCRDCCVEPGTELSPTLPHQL
T4 sequence (O43318 1-303 limits assumed): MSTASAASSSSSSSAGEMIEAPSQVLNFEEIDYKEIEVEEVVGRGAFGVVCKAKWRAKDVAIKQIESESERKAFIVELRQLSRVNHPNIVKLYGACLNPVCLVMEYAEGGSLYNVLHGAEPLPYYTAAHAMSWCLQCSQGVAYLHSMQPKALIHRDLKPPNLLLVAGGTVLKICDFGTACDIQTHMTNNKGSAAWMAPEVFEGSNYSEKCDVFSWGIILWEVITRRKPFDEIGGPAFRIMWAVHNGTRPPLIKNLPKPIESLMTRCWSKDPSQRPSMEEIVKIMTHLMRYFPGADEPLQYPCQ
T3 sequence (Q13177 whole entry): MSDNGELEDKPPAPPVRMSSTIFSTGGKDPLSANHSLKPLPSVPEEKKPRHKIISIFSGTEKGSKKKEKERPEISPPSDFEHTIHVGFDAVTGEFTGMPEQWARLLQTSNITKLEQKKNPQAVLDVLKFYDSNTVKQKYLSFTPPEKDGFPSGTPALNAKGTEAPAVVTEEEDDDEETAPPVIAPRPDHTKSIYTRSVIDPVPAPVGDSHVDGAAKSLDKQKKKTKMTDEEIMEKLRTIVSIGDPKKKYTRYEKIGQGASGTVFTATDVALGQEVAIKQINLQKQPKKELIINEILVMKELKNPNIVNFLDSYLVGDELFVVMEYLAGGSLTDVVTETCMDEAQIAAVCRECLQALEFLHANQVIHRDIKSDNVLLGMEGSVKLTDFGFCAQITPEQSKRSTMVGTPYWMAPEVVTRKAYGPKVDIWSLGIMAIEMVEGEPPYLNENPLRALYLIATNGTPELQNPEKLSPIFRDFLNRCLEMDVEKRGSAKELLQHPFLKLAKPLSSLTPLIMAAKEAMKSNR

COc1ccc(-n2c(SCc3nc(-c4ccc(C)cc4)no3)nnc2-c2ccncc2)cc1 [Compound 1]
number of colon tumours, Max (Apc^Min mice; Test (male + female), control max 6): 2
number of small intestine tumours, Max (Apc^Min mice; Test (male + female), control max 295): 53
number of colon tumours, Mean (Apc^Min mice; Test (male + female), control mean 1.783, P=0.003): 0.42 and 0.429
number of small intestine tumours, Mean (Apc^Min mice; Test (male + female), control mean 74.8, P=0.036): 36.1
number of colon tumours, Median (Apc^Min mice; Test (male + female), control median 1): 0
number of small intestine tumours, Median (Apc^Min mice; Test (male + female), control median 45): 35
number of colon tumours, Min (Apc^Min mice; Test (male + female), control min 0): 0
number of small intestine tumours, Min (Apc^Min mice; Test (male + female), control min 25): 19
number of small intestine tumours, Max (Apc^Min mice; [1]): 51
number of small intestine tumours, Mean (Apc^Min mice; [1]): 33.5
number of small intestine tumours, Median (Apc^Min mice; [1]): 33
number of small intestine tumours, Min (Apc^Min mice; [1]): 19
number of small intestine tumours, Max (Apc^Min mice; [2]): 53
number of small intestine tumours, Mean (Apc^Min mice; [2]): 39.1
number of small intestine tumours, Median (Apc^Min mice; [2]): 37
number of small intestine tumours, Min (Apc^Min mice; [2]): 22
difference in the bodyweight of male or female mice (Apc^Min mice; after the treatments, versus vehicle group): No substantial difference
tumour frequencies among size classes between 0.10 mm^2 and 3.20 mm^2, small intestine (Apc^Min mice; compared to control): drastically reduced
tumours in the last two-thirds of the small intestine (Apc^Min mice; compared to control): substantially fewer tumours
total tumor load in the small intestine (sum of all tumors in mm^2/n) (Apc^Min mice; control 38.1 mm^2/subject): 16.4 mm^2/subject
activity at 10 µM (CaMKI(h)): 97%
activity at 10 µM (DRAK1(h)): 116%
activity at 10 µM (PAK2(h)): 99%
activity at 10 µM (TAK1(h)): 104%
Activity (%) (YopH(y)): 94%
activity at 10 µM (RPTPm(h)): 103%
